Results published in patent US12410323B2, “Potent antifouling agents albofungins target multiple fouling organisms” (The Hong Kong University of Science and Technology, priority 2021, dated 2025).
Values after ≈ are worked out from the molar mass of the structure shown. Where two headings read alike, the source gives them in different places.

Tests used:
[1] = Anti-larval settlement bioassay, barnacle; format: in vivo, Amphibalanus amphitrite; conditions: Amphibalanus amphitrite (barnacle), cyprid larvae, in vivo; larval mortality, 48 h at 25° C.
Experimental: (§1) A. amphitrite adults were collected from Pak Sha Wan Pier, Hong Kong (22° 38′N, 114° 28′E) and after keeping in the dark for 24 h, a light source was used to stimulate the larval release. Within 1 h, the larvae were collected and cultured in 0.22 μm filtered seawater with a daily diet of Chaetoceros gracilis Schutt at 1×10^6 cells mL^−1 until their growth into cyprids, which were used for the anti-larval settlement bioassay. The bryozoan B. neritina adults were collected from a fish farm in Pak Shek Kok, Hong Kong (22° 43′N, 114° 20′E) and kept in flow-through seawater for no more than 7 days before use. The larvae were released within 30 minutes before the bioassay as described (Xu et al., 2010). The bioassay was conducted in a 24-well polystyrene tissue culture plate with 15-20 larvae in each well. 0.1% of DMSO in filtered seawater (FSW), and 0.625, 1.25, 2.5, 5, 10, 20, and 40 μg mL^−1 albofungin concentrations were tested in triplicate. In each well, 1 mL of FSW containing 15-20 larvae and 1 mL of albofungin solution of different concentrations. The plate was kept for 48 h at 25° C. (bryozoan B. neritina larvae were kept for 3 h). The wells with 0.1% of DMSO in FSW served as a negative control, and butenolide was used as a positive control. The number of attached, swimming, and dead larvae were counted under an Olympus optical microscope (Olympus Corporation, Tokyo, Japan). The settlement rate was calculated as the ratio of settled larvae to the total number of larvae in each well, and the death rate was calculated as the ratio of dead or missing larvae to the total number of larvae in each well. Half maximal effective concentration (EC50) and half lethal concentration (LC50) were determined for each compound, and the ratio of LC50/EC50 was used to evaluate the toxicity of the antifoulant. Experiments were performed in triplicate. Data were analyzed by one-way ANOVA to detect significant differences in the larval settlement, and SD was calculated by GraphPad Prism 9.

[2] = tested on: barnacle Amphibalanus amphitrite larvae; test: Anti-larval settlement bioassay, barnacle; format: in vivo; conditions: for EC50: Amphibalanus amphitrite; for settlement rate compared with control group (0.1% DMSO in FSW): after 48 h of incubation; for LC50/EC50: ratio used to evaluate toxicity of the antifoulant
Experimental: as §1

[3] = tested on: Escherichia coli k12; test: Biofilm inhibition assay (MTT), pathogenic bacteria; format: cell-based; conditions: lowest concentration inhibiting 90% of biofilm formation
Experimental: (§2) The ability of the bacteria to form static biofilms was tested. Marine bacteria were cultured overnight in marine broth at 22° C. with 220 rpm agitation (Pseudomonas pachastrellae MCCC 1A01390, Sulfitobacter pontiacus MCCC 1A04899 and Psychrobacter nivimaris MCCC 1A 11723) and at 30° C. (Staphylococcus aureus B04, Staphylococcus sp. Z01 and Micrococcus sp. Z02) and then diluted to 10^7 CFU mL^−1 in marine broth supplemented with 1% of glucose; pathogenic bacteria was cultured overnight in LB broth with 1% glucose with 220 rpm at 37° C. Afterwards, 200 μL of the diluted solution were added to each well of a 96-well plate (Corning Inc., New York, USA) and was then incubated at 22° C. or 30° C. for 24 h. The culture medium, planktonic cells and loosely adhered bacteria were removed by dual washing with a phosphate-buffered saline (PBS) buffer, and the firmly attached bacteria were incubated with 20 μL of MTT (5 mg mL^−1) at 37° C. for 3 h. The supernatant was discarded, and formazan was dissolved in 150 μL of DMSO. Absorbance was measured using the Multiskan™ FC microplate photometer (Thermo Fisher Scientific, Waltham, USA) under 570 nm, and MRSA ATCC 43300 was used as a positive control. All the experiments were performed in triplicate.
(§3) The antibacterial activities of albofungins were tested following specific protocols (She et al., 2020). Marine broth was used as the test medium for the marine bacteria, and the MHB broth was used as the test medium for the pathogenic bacteria. The plate was kept at 22° C. or 30° C. overnight, and the minimum inhibitory concentration (MIC) is the lowest concentration that the drug prevents the visible growth of bacteria. The bacteria which have successfully formed biofilms were further used for antibiofilm formation assays. Different concentrations of albofungin compounds were added to each well. Biofilm formation was assessed through the MTT assay as previously described. […] Data were analyzed using one-way ANOVA to detect significant differences and standard deviation (SD) was calculated using GraphPad Prism 9. All the assays were performed in triplicate.

[4] = tested on: Acinetobacter baumannii B-65371; test: as above; format: cell-based; conditions: lowest concentration inhibiting 90% of biofilm formation
Experimental: as §2, §3

[5] = tested on: Enterobacter cloacae NRRL-B-425; test: as above; format: cell-based; conditions: lowest concentration inhibiting 90% of biofilm formation
Experimental: as §2, §3

[6] = Anti-larval settlement bioassay, bryozoan; format: in vivo, Bugula neritina; conditions: Bugula neritina (bryozoan), larvae, in vivo; larval mortality, 3 h
Experimental: as §1

[7] = tested on: bryozoan Bugula neritina larvae; test: Anti-larval settlement bioassay, bryozoan; format: in vivo
Experimental: as §1

[8] = tested on: Micrococcus sp. Z02; test: Bacterial growth inhibition (antibacterial assay, MIC); format: cell-based; conditions: marine broth, overnight
Experimental: as §3

[9] = tested on: MCCC 1A04899 Sulfitobacter pontiacus; test: as above; format: cell-based
Experimental: as §3

[10] = tested on: MCCC 1A11723 Psychrobacter nivimaris; test: as above; format: cell-based; conditions: marine broth, overnight
Experimental: as §3

[11] = tested on: Staphylococcus sp. Z01; test: as above; format: cell-based; conditions: marine broth, overnight
Experimental: as §3

[12] = tested on: MCCC 1A01390 Pseudomonas pachastrellae; test: as above; format: cell-based; conditions: Halopseudomonas pachastrellae; marine broth, overnight
Experimental: as §3

[13] = tested on: Staphylococcus aureus 04; test: as above; format: cell-based; conditions: marine broth, overnight
Experimental: as §3

[14] = tested on: Micrococcus sp. Z02; test: Biofilm inhibition assay (MTT), marine bacteria; format: cell-based; conditions: lowest concentration inhibiting 90% of biofilm formation; 24 h
Experimental: as §2, §3

[15] = tested on: MCCC 1A04899 Sulfitobacter pontiacus; test: Biofilm inhibition assay (MTT), marine bacteria; format: cell-based; conditions: lowest concentration inhibiting 90% of biofilm formation; 24 h
Experimental: as §2, §3

[16] = tested on: MCCC 1A11723 Psychrobacter nivimaris; test: Biofilm inhibition assay (MTT), marine bacteria; format: cell-based; conditions: lowest concentration inhibiting 90% of biofilm formation; 24 h
Experimental: as §2, §3

[17] = tested on: Staphylococcus sp. Z01; test: Biofilm inhibition assay (MTT), marine bacteria; format: cell-based; conditions: lowest concentration inhibiting 90% of biofilm formation; 24 h
Experimental: as §2, §3

[18] = tested on: MCCC 1A01390 Pseudomonas pachastrellae; test: Biofilm inhibition assay (MTT), marine bacteria; format: cell-based; conditions: lowest concentration inhibiting 90% of biofilm formation; 24 h
Experimental: as §2, §3

[19] = tested on: Staphylococcus aureus 04; test: Biofilm inhibition assay (MTT), marine bacteria; format: cell-based; conditions: lowest concentration inhibiting 90% of biofilm formation; 24 h
Experimental: as §2, §3

[20] = Release rate of albofungin from coatings into artificial seawater (HPLC); format: physicochemical; conditions: for highest release rate: first day, artificial seawater
Experimental: Around 1 g of albofungin compound was isolated, purified and analyzed using HPLC to guarantee over 95% purity. Albofungin-based hydrolysable and degradable copolymer coating was prepared as follows: methyl methacrylate (MMA) and tributylsilyl methacrylate (TBSM) copolymer (PMSMO) was synthesized via radical ring-opening polymerization (Zhou et al., 2015). For 5 wt % of albofungin-based coating, 0.95 g of PMSMO and 0.05 g of albofungin were dissolved in xylene and tetrahydrofuran (v:v=1:2) and mixed vigorously at room temperature. The solution was then coated on the PVC panels (4×7 cm^2) and dried at room temperature for 7 days (Ma et al., 2017). Other coatings with different albofungin concentrations (10 and 15 wt %) were prepared using the same procedure. The coating with PMSMO only was used as a […]. Each concentration was prepared for three biological replicates. The field test was conducted from March to April 2021 in a fish farm at Yung Shue O, Hong Kong (22° 24′N, 114° 21′E), which was heavily fouled all year round. The PVC panel was submerged into seawater at a depth of 0.5 meters for 2 months, retrieved, washed with seawater, and photographed. The area covered by biofoulers was calculated by Image J (Fiji-2.2.0) (Schindelin, et al., 2012). One-way ANOVA was used to compare the albofungin-coated panels and the control panels. The release rate of albofungin under static conditions was determined by measuring the compound concentration with HPLC. Albofungin-based coatings were applied onto a PVC panel (20×75 mm^2) and submerged in artificial seawater (ASW). After 7 days, the panel was transferred to an individual container with 100 mL of ASW. After 24 h of immersion, 10 mL of the seawater was taken out of the container and extracted with the same volume of ethyl acetate three times. After drying under the SpeedVac vacuum concentrators, the extracts were dissolved in 100 μL of methanol and then subjected to HPLC using a reversed-phase system (Waters 2695) with a Phenomenex Luna C18 column connected to a UV detector at 300 nm. The unique UV absorption of albofungin and retention time were determined, with the amount being calculated from the established standard curves using peak areas plotted against known standard quantities.

[21] = tested on: MRSA ATCC 43300; test: Biofilm inhibition assay (MTT), pathogenic bacteria; format: cell-based, Staphylococcus aureus; conditions: lowest concentration inhibiting 90% of biofilm formation
Experimental: as §2
as §3, with “All the assays were performed in triplicate.” left out

[22] = larval settlement, 48 h at 25° C., read-out: EC50

SMILES	LC50 at 48 h [1]	EC50 ([2]; 48 h)	settlement rate compared with control group (0.1% DMSO in FSW) [2]	LC50/EC50 [2]	MBIC90 [3]	MBIC90 [4]	MBIC90 [5]	MIC [8]	MIC [9]	MIC [10]	MIC [11]	MIC [12]	MIC [13]	MBIC90 [14]	MBIC90 [15]	MBIC90 [16]	MBIC90 [17]	MBIC90 [18]	MBIC90 [19]	MBIC90 [21]	also measured
CO[C@@H]1CC[C@H](O)c2c1oc1c3c4c(c(O)c1c2=O)-c1c(cc2cc(C)n(N)c(=O)c2c1O)C[C@H]4OCO3 [Albofungin (1), albofungin]	> 100 µg/mL	1.6 µg/mL (≈ 3.07 µM)	significantly lower	62.5	0.63 to 1.25 µg/mL	0.06 to 0.13 µg/mL	1.25 to 2.5 µg/mL	0.0032 µg/mL (≈ 0.00615 µM)	0.032 µg/mL (≈ 0.0615 µM)	> 20 µg/mL	0.0008 µg/mL (≈ 0.00154 µM)	0.5 µg/mL (≈ 0.961 µM)	0.0032 µg/mL (≈ 0.00615 µM)	31.25 to 62.50 ng/mL	0.13 to 0.25 µg/mL	10 to 20 µg/mL	0.63 to 1.25 ng/mL	0.25 to 0.50 µg/mL	15.63 to 31.25 ng/mL	0.01 to 0.03 µg/mL	larval settlement rate ([2]; 2.5 μg mL^−1, 48 h): 33% (±5.3%); antifouling activity against larval settlement compared with butenolide ([2]; according to the EC50 value): equivalent antifouling activity; LC50 at 3 h [6]: > 100 µg/mL; larval settlement ([7]; 2.5 μg mL^−1, 3 h): 44% (±9.0%); EC50 ([7]; Bugula neritina, larval settlement, 3 h): 1.9 µg/mL (≈ 3.65 µM); lethal effects ([7]; highest concentration tested): no lethal effects; LC50/EC50 ([7]; ratio used to evaluate toxicity of the antifoulant): 52.6; highest release rate ([20]; 5 wt % albofungin coating): 0.86 μg day-1 cm^−2; highest release rate ([20]; 10 wt % albofungin coating): 1.1 μg day-1 cm^−2; release rate decreased to ([20]; 15, 10 and 5 wt % coatings, time-dependent, within 35 days): approximately 0.08 μg day-1 cm^−2; highest release rate ([20]; 15 wt % albofungin coating): 1.4 μg day-1 cm^−2
Cc1cc2cc3c(c(O)c2c(=O)n1N)-c1c2c(c4oc5c(c(=O)c4c1O)[C@@H](O)CC[C@H]5O)OCO[C@@H]2C3 [Albofungin A (2), albofungin A]	> 100 µg/mL	12.2 µg/mL (≈ 24.1 µM)	significantly lower	8.2	0.31 to 0.63 µg/mL	0.13 to 0.25 µg/mL	0.63 to 1.25 µg/mL	0.0064 µg/mL (≈ 0.0126 µM)	0.008 µg/mL (≈ 0.0158 µM)	> 20 µg/mL	0.0008 µg/mL (≈ 0.00158 µM)	0.12 µg/mL (≈ 0.237 µM)	0.0064 µg/mL (≈ 0.0126 µM)	62.5 to 125 ng/mL	0.02 to 0.03 µg/mL	>20 µg/mL	0.63 to 1.25 ng/mL	0.02 to 0.03 µg/mL	15.63 to 31.25 ng/mL	0.01 to 0.03 µg/mL	larval settlement rate ([2]; 20 μg mL^−1, 48 h): 17% (±12.7%)
CO[C@@H]1CC[C@H](O)c2c1oc1c3c4c(c(O)c1c2=O)-c1c(cc2c(Cl)c(C)n(N)c(=O)c2c1O)C[C@H]4OCO3 [Chloroalbofungin (3), chloroalbofungin]	> 100 µg/mL		did not cause significant difference					0.05 µg/mL (≈ 0.0901 µM)	> 20 µg/mL	> 20 µg/mL	0.0016 µg/mL (≈ 0.00288 µM)	> 20 µg/mL	0.0125 µg/mL (≈ 0.0225 µM)	250 to 500 ng/mL	10 to 20 µg/mL	>20 µg/mL	100 to 200 ng/mL	>20 µg/mL	250 to 500 ng/mL		EC50 [2, 22]: 35 µg/mL (≈ 63.1 µM)
CO[C@@H]1CC[C@H](O)c2c1oc1c3c4c(c(O)c1c2=O)-c1c(cc2cc(C)[nH]c(=O)c2c1O)C[C@H]4OCO3 [Chrestoxanthone A (4), chrestoxanthone A]	> 100 µg/mL		did not cause significant difference			1.25 to 2.5 µg/mL	>10 µg/mL	0.0125 µg/mL (≈ 0.0247 µM)		> 20 µg/mL	0.0016 µg/mL (≈ 0.00317 µM)	> 20 µg/mL	0.0125 µg/mL (≈ 0.0247 µM)	125 to 250 ng/mL	10 to 20 µg/mL	>20 µg/mL	5 to 10 ng/mL	>20 µg/mL	62.5 to 125 ng/mL	0.13 to 0.25 µg/mL	EC50 [2, 22]: > 36.8 µg/mL; MIC ([9]; marine broth, overnight, read-out: MIC): 20 µg/mL (≈ 39.6 µM)
